# Measured values as given in patent US20130065868A1, “ANXIOYTIC MARCGRAVIACEAE COMPOSITIONS CONTAINING BETULINIC ACID, BETULINIC ACID DERIVATIVES, AND METHODS” (UNIVERSITY OF OTTAWA, priority 2002, published 2013).
# Columns and labels:
# CD-1 strain of mice = assay: Elevated plus maze test in CD-1 mice; type: in vivo, mouse; conditions: for entries into the open (anxiogenic) arm of the elevated plus maze: 45-60 min, vs peanut oil control
# Protocol: Previous experiments were all conducted in experimental rats. Here we tested the effect of betulinic acid on CD-1 strain of mice. Mice received 0.25 or 2.5 mg/kg of betulinic acid, or peanut oil only (control), intra peritoneally (“i.p.”), and were tested 45-60 minutes later in the elevated plus maze test.
# BALB/c mice = assay: Elevated plus maze test in BALB/c mice; type: in vivo, mouse; conditions: vs peanut oil only control
# From the text: BALB/c mice represent a strain of mice that is very stress-reactive.
# Mice received dosages of betulinic acid in accordance with the previous example.
# Sprague-Dawley rats = assay: Rat social interaction paradigm; type: in vivo; conditions: 0.5 mg/kg i.p.
# From the text: The rat social interaction paradigm takes advantage of rats' natural behaviour in novel situations. The more ‘anxious’ the animals are, the less likely they are engage in social interaction with the cohort. Anxiolytic drugs typically increase the amount of time rodents spend socially interacting with one another. (Pile, S. E., (1980). The use of social interaction as a method for detecting anxiolytic activity of chlor-diazepoxide-like drugs. In Current Protocols in Neuroscience (pp. 8.3.3-8.3.4), John-Wiley & Sons).
# The social-interaction (SI) test arena constituted of a 60×60 cm white Plexiglas floor, enclosed by 35-cm high walls of the same material. The arena was surrounded by black curtain, and a closed circuit camera was positioned above the setup, to feed live video signals to the experimenter seated in a separate room, for behavioral assessment and recording.
# Each rat was placed alone in the SI box for 7.5 min daily for 2 days, in order to familiarize the animals with the test environment. Animals were paired according to their body weights (less than 10 g difference) and each pair was randomly assigned to one of the treatment groups. Rats received either betulinic acid 0.5 mg/kg i.p., betulinic acid methyl ester (methyl betulinate) 0.5 mg/kg i.p., or peanut oil only (control). Drugs were injected (i.p.) 60 min prior to testing. Tests were carried out at three intervals, 1 h, 2.5 h and 4 h after injection. Each pair was tested at the 1-h interval, then new pairs from within the same drug group were formed for the 2.5-h interval and then again at the 4-h interval (new pairs were formed for each test interval, to control for the potential confounding effect partner familiarity). […] The behaviors scored included the amount of time the pairs spent interacting together (sniffing, grooming and chasing) as well as the number of times the animals initiated contact.
# Sprague Dawley rats = assay: Locomotor activity after chronic administration; type: in vivo, rat; conditions: chronic 0.5 mg/kg daily orally, one night 5 p.m. to 7 a.m. (FIG. 11)
# Protocol: Test animals and drug treatments were as in Example 14. Locomotor activity was recorded for one night (5 p.m. to 7 a.m. the following morning) in the control as well as in the betulinic acid and methyl ester of betulinic acid exposed groups. Locomotor activity was monitored using infrared sensors located on the roof of the animals' cage. Eight independent sensors monitored activity of animals according to the number of quadrants traversed.
# adrenergic α1 = assay: MDS Panlabs screen: adrenergic α1; type: binding; conditions: Catecholamines
# Protocol: (§1) Tests were conducted by MDS Panlabs to determine whether any of the classical neurotransmitter systems or the peptidergic systems thought to play a role in anxiety are affected by betulinic acid.
# adrenergic β = assay: MDS Panlabs screen: adrenergic β; type: binding; conditions: Catecholamines
# Protocol: as §1
# MAO B = MAO B (Homo sapiens, UniProt P27338); assay: MDS Panlabs screen: MAO B; type: biochemical; conditions: Catecholamines
# Protocol: as §1
# domaine D1 = domaine D1 (Homo sapiens, UniProt P21728); assay: MDS Panlabs screen: D1; type: binding; conditions: Catecholamines
# Protocol: as §1
# domaine D2 = domaine D2 (Homo sapiens, UniProt P14416); assay: MDS Panlabs screen: D2; type: binding; conditions: Catecholamines
# Protocol: as §1
# GABAA, agonist site = assay: MDS Panlabs screen: GABAA, agonist site; type: binding; conditions: Gabaergic
# Protocol: as §1
# GABAA, BZP = assay: MDS Panlabs screen: GABAA, BZP; type: binding; conditions: Gabaergic
# Protocol: as §1
# GABA C1-channel = assay: MDS Panlabs screen: GABA channel; type: binding; conditions: Gabaergic
# Protocol: as §1
# Glutamate non-selective = assay: MDS Panlabs screen: Glutamate non-selective; type: binding; conditions: Gabaergic
# Protocol: as §1
# Histamine H1 = Histamine H1 (Homo sapiens, UniProt P35367); assay: MDS Panlabs screen: Histamine H1; type: binding
# Protocol: as §1
# 5-HT1 = assay: MDS Panlabs screen: 5-HT1; type: binding; conditions: Serotonin (5-HT)
# Protocol: as §1
# Sigma non-selective = assay: MDS Panlabs screen: Sigma non-selective; type: binding
# Protocol: as §1
# bombesin = assay: MDS Panlabs screen: bombesin; type: binding; conditions: Peptides
# Protocol: as §1
# cannabinoid CB2 = cannabinoid CB2 (Homo sapiens, UniProt P34972); assay: MDS Panlabs screen: cannabinoid CB2; type: binding; conditions: Peptides
# Protocol: as §1
# CCKA = CCKA (Homo sapiens, UniProt P32238); assay: MDS Panlabs screen: cholecystokinin (CCK) CCKA; type: binding; conditions: Peptides
# Protocol: as §1
# EGF = EGF (Homo sapiens, UniProt P00533); assay: MDS Panlabs screen: EGF; type: binding; conditions: Peptides
# Protocol: as §1
# GLP-1 = GLP-1 (Homo sapiens, UniProt P43220); assay: MDS Panlabs screen: GLP-1; type: binding; conditions: Peptides
# Protocol: as §1
# melanocortin MC4 = melanocortin MC4 (Homo sapiens, UniProt P32245); assay: MDS Panlabs screen: melanocortin MC4; type: binding; conditions: Peptides
# Protocol: as §1
# neuropeptide Y1 = neuropeptide Y1 (Homo sapiens, UniProt P25929); assay: MDS Panlabs screen: neuropeptide Y1; type: binding; conditions: Peptides
# Protocol: as §1
# neuropeptide Y2 = neuropeptide Y2 (Homo sapiens, UniProt P49146); assay: MDS Panlabs screen: neuropeptide Y2; type: binding; conditions: Peptides
# Protocol: as §1
# neurotensin = assay: MDS Panlabs screen: neurotensin; type: binding; conditions: Peptides
# Protocol: as §1
# VIP1 = VIP1 (Homo sapiens, UniProt P32241); assay: MDS Panlabs screen: VIP1; type: binding; conditions: Peptides
# Protocol: as §1
# COX-1 = COX-1 (Homo sapiens, UniProt P23219); assay: MDS Panlabs screen: cyclooxygenase COX-1; type: biochemical
# Protocol: as §1
# interleukin IL-1α = assay: MDS Panlabs screen: interleukin IL-1α; type: binding; conditions: Peptides
# Protocol: as §1
# Sequence of CCKA (P32238 whole entry): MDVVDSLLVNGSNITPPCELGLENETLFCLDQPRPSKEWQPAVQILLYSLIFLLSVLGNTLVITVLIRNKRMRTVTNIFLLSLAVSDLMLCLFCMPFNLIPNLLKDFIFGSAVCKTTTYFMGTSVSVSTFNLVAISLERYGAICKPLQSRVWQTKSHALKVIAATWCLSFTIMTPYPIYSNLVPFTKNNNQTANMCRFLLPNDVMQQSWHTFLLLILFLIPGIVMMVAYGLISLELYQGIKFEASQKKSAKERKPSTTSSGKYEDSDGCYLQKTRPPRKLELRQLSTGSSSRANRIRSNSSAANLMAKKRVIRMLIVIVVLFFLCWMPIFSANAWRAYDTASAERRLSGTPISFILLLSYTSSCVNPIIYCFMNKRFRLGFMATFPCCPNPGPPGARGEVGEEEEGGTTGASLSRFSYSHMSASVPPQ
# Sequence of domaine D2 (P14416 whole entry): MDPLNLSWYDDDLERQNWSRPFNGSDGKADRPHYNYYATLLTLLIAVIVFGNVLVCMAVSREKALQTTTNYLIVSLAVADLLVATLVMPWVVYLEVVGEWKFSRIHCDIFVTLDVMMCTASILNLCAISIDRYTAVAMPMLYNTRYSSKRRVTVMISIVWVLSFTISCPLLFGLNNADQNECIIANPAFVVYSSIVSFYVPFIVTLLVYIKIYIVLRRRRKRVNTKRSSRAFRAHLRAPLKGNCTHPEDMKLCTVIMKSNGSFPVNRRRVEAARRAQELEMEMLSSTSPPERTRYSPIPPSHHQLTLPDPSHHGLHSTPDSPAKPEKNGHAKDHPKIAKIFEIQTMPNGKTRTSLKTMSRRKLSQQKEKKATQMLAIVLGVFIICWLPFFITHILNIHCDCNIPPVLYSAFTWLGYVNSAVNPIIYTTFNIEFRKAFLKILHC
# Sequence of VIP1 (P32241 31-457): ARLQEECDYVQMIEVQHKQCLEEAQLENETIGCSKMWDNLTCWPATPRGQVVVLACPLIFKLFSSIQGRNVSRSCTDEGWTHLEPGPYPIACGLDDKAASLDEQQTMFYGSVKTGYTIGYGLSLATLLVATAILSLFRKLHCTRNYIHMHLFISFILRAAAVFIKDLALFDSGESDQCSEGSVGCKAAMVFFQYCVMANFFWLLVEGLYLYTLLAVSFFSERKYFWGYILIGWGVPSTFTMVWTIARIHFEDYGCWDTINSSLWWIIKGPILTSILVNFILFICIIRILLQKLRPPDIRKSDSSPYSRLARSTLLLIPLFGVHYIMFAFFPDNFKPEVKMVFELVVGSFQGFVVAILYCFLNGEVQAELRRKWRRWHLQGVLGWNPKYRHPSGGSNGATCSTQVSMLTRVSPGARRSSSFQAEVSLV
# Sequence of domaine D1 (P21728 whole entry): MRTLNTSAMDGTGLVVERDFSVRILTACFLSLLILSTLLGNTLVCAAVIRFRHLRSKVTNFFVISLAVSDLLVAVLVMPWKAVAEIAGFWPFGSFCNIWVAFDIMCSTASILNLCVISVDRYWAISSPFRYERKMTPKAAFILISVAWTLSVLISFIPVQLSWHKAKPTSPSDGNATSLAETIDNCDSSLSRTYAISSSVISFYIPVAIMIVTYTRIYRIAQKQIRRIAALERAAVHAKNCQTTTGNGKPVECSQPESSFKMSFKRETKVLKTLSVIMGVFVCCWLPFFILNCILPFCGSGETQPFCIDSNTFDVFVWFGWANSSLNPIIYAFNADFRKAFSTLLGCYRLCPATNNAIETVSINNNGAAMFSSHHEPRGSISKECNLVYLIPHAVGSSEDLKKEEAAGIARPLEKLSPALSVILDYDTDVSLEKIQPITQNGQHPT
# Sequence of GLP-1 (P43220 24-463): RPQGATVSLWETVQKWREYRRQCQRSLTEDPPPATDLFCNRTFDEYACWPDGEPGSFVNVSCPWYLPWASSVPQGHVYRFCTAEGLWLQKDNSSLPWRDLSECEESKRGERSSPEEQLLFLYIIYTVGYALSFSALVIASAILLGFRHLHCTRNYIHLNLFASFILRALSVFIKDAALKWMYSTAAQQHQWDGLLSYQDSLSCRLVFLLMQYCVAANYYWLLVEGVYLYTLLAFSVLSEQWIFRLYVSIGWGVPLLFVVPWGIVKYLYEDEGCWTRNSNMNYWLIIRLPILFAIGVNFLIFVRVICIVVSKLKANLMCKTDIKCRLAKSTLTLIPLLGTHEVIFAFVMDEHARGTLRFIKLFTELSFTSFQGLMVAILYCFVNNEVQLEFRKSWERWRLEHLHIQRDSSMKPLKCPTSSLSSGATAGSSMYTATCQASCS
# Sequence of Histamine H1 (P35367 whole entry): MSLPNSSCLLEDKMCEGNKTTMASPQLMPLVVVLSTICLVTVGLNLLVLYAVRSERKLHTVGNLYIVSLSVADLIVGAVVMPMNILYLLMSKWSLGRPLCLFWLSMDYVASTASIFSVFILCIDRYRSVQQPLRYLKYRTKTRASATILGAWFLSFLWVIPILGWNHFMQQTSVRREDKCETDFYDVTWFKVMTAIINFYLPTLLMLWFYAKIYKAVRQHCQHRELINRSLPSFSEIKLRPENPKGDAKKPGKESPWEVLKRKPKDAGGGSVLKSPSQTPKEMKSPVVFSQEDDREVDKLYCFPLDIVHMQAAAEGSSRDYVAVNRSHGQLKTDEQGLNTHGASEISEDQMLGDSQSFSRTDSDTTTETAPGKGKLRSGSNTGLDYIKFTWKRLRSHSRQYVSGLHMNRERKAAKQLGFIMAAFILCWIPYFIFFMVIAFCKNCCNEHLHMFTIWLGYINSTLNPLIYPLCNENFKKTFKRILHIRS
# Sequence of melanocortin MC4 (P32245 whole entry): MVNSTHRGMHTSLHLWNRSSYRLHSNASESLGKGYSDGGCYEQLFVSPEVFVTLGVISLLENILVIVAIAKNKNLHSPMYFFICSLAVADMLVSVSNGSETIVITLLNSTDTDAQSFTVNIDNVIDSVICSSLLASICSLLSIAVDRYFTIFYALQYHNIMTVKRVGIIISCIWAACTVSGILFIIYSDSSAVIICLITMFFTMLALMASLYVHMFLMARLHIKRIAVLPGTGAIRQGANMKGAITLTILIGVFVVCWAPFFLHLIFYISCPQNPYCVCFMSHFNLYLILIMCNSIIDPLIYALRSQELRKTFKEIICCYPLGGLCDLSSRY
# Sequence of COX-1 (P23219 24-599): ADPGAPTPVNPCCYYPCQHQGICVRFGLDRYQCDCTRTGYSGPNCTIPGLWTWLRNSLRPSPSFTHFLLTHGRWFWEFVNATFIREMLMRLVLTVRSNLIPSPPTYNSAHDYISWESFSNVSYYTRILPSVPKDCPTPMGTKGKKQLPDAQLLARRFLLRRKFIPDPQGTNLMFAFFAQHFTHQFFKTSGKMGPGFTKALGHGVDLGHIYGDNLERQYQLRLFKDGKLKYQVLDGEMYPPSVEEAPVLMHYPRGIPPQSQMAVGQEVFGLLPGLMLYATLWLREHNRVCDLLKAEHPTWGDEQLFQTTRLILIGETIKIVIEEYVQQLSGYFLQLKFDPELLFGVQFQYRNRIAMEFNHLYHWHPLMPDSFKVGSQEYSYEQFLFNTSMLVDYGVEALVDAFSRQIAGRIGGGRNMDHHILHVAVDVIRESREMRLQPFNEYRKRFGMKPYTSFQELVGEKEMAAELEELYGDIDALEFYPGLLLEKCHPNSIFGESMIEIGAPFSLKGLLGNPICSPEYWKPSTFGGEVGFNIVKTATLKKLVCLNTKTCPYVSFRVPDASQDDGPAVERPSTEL
# Sequence of cannabinoid CB2 (P34972 whole entry): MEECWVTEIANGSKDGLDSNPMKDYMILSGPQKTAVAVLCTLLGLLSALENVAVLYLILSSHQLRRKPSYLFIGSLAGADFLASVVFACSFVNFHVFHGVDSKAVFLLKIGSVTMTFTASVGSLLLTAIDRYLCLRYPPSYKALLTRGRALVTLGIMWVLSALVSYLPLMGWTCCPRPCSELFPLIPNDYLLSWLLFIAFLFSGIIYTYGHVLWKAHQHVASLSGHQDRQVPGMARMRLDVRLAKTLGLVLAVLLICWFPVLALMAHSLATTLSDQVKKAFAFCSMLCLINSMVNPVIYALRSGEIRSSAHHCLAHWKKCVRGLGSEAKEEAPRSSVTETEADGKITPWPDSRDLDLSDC
# Sequence of neuropeptide Y2 (P49146 whole entry): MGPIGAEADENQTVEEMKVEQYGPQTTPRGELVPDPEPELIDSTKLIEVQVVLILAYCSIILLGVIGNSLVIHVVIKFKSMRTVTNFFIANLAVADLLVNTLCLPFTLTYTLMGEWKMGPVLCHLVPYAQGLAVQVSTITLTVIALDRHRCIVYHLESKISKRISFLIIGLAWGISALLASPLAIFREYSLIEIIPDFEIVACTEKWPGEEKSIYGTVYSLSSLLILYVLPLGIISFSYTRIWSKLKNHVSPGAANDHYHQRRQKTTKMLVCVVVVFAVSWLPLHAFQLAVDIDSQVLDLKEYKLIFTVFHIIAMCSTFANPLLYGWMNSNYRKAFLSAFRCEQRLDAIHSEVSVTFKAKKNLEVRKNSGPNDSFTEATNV
# Sequence of neuropeptide Y1 (P25929 whole entry): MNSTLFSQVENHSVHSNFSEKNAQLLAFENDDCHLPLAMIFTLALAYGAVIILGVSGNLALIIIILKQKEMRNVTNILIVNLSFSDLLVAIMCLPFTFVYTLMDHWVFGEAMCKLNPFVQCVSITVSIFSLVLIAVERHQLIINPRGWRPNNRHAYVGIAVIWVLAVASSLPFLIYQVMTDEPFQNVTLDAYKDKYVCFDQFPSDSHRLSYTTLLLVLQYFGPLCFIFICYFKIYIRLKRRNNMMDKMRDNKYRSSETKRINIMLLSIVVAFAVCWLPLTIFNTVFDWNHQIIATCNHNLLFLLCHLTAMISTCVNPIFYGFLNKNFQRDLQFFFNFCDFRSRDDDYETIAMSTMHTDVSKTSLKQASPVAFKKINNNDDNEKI
compound,measurement,setting,value
"C=C(C)[C@@H]1CC[C@]2(C(=O)O)CC[C@]3(C)C(CC[C@@H]4[C@@]5(C)CC[C@H](O)C(C)(C)[C@@H]5CC[C@]43C)[C@@H]12 (some centres unmarked) [betulinic acid, Betulinic acid]",entries into the open (anxiogenic) arm of the elevated plus maze,"CD-1 strain of mice; CD-1 mice, 0.25 mg/kg i.p.",more often than controls
same,entries into the open (anxiogenic) arm of the elevated plus maze,"CD-1 strain of mice; CD-1 mice, 2.5 mg/kg i.p.",more often than controls
same,proportion of time spent on the open arm of the maze,"CD-1 strain of mice; CD-1 mice, 0.25 or 2.5 mg/kg i.p. (dose not singled out in the sentence)",increased significantly
same,maximally effective dose,"CD-1 strain of mice; mice, i.p., elevated plus maze, higher dose did not increase the effect further",0.25 mg/kg
same,number of entries on the open arm of the elevated plus maze,BALB/c mice; 0.25 mg/kg i.p.,significantly increased
same,proportion of time spent on the open arm of the elevated plus maze,BALB/c mice; 0.25 mg/kg i.p.,significantly increased
same,number of entries on the open arm of the elevated plus maze,BALB/c mice; 2.5 mg/kg i.p.,significantly increased
same,proportion of time spent on the open arm of the elevated plus maze,BALB/c mice; 2.5 mg/kg i.p.,significantly increased
same,frequency of initiated contact,Sprague-Dawley rats,not significant
same,amount of social interaction (interaction time) compared to the control group,"Sprague-Dawley rats; data collapsed across 1 h, 2.5 h and 4 h (FIG. 8)",significantly increased the amount of social interaction
same,adverse effect on locomotor activity or pattern,Sprague Dawley rats,neither betulinic acid nor the methyl ester of betulinic acid had an adverse effect on locomotor activity or pattern
same,affected by betulinic acid,adrenergic α1,none of the following neurotransmitters or proteins were affected
same,affected by betulinic acid,adrenergic β,none of the following neurotransmitters or proteins were affected
same,affected by betulinic acid,MAO B,none of the following neurotransmitters or proteins were affected
same,affected by betulinic acid,domaine D1,none of the following neurotransmitters or proteins were affected
same,affected by betulinic acid,domaine D2,none of the following neurotransmitters or proteins were affected
same,affected by betulinic acid,"GABAA, agonist site",none of the following neurotransmitters or proteins were affected
same,affected by betulinic acid,"GABAA, BZP",none of the following neurotransmitters or proteins were affected
same,affected by betulinic acid,GABA C1-channel,none of the following neurotransmitters or proteins were affected
same,affected by betulinic acid,Glutamate non-selective,none of the following neurotransmitters or proteins were affected
same,affected by betulinic acid,Histamine H1,none of the following neurotransmitters or proteins were affected
same,affected by betulinic acid,5-HT1,none of the following neurotransmitters or proteins were affected
same,affected by betulinic acid,Sigma non-selective,none of the following neurotransmitters or proteins were affected
same,affected by betulinic acid,bombesin,none of the following neurotransmitters or proteins were affected
same,affected by betulinic acid,cannabinoid CB2,none of the following neurotransmitters or proteins were affected
same,affected by betulinic acid,CCKA,none of the following neurotransmitters or proteins were affected
same,affected by betulinic acid,EGF,none of the following neurotransmitters or proteins were affected
same,affected by betulinic acid,GLP-1,none of the following neurotransmitters or proteins were affected
same,affected by betulinic acid,melanocortin MC4,none of the following neurotransmitters or proteins were affected
same,affected by betulinic acid,neuropeptide Y1,none of the following neurotransmitters or proteins were affected
same,affected by betulinic acid,neuropeptide Y2,none of the following neurotransmitters or proteins were affected
same,affected by betulinic acid,neurotensin,none of the following neurotransmitters or proteins were affected
same,affected by betulinic acid,VIP1,none of the following neurotransmitters or proteins were affected
same,affected by betulinic acid,COX-1,none of the following neurotransmitters or proteins were affected
same,affected by betulinic acid,interleukin IL-1α,none of the following neurotransmitters or proteins were affected
